Values belong to the compound of their own block, whether it stands above or below them. Ends that are not written are not given here. Peptide text beside a SMILES is read from it.
Experiments:
[1] = system: granulocytes, monocytes and macrophages; conditions: in vitro; cited from earlier work
human mast cells = conditions: Stanworth et al. 1979; cited from earlier work
rodent mast cells = conditions: Stanworth et al. 1979; cited from earlier work
[2] = system: MONOCYTE/MACROPHAGE Fc Receptor IgG; experiment: Rosette inhibition assay, IgG-coated ox erythrocytes, monocytes / U937; format: binding, human; conditions: relative to intact monomeric myeloma protein at equal concentration; 15 min preincubation
Procedure: (§1) The Fc receptor blocking activity of the subject peptides was assessed using well established techniques and procedures. In particular, a rosette assay was employed which uses either monomeric, chemically or heat aggregated human IgG or IgE obtained from human myeloma sera. (Gonzalez-Molina, et al., J. Clin. Invest., 59, 616 (1977); Spiegelberg, et al. in Immunoassays: Clinical Laboratory Techniques for the 1980's (Alan R. Liss: New York, 1980), pp. 287-300). The IgG or IgE is then adsorbed to ox-erythrocytes which has been previously treated with trypsin and pyruvic aldehyde. […] Addition of inhibitor myeloma proteins or inhibitor peptides produced a reproducable reduction of rosette formation, […], phosphate buffered isotonic saline, was used alone as control and then multiplying the calculated quotient by 100.
(§2) Table 1 presents the inhibition observed by representative peptide inhibitors calculated as a percentage of the inhibition observed with intact, monomeric myeloma proteins. […]

BASOPHIL Fc Receptor IgG = experiment: Rosette inhibition assay, IgG-coated ox erythrocytes, basophils; format: binding, human; conditions: relative to intact monomeric myeloma protein at equal concentration; 15 min preincubation
Procedure: as §1, §2

[3] = system: NEUTROPHIL (PMN) Fc Receptor IgG; experiment: Rosette inhibition assay, IgG-coated ox erythrocytes, fresh human PMNs; format: binding; conditions: relative to intact monomeric myeloma protein at equal concentration; 15 min preincubation
Procedure: as §1, §2

[4] = system: human monocyte IgG Fc receptors; conditions: Ciccimarra et al. 1975; Ratcliffe and Stanworth 1982; cited from earlier work
[5] = target: T1, IgE Fc receptor of human basophils (Homo sapiens, UniProt P12319); conditions: Plummer et al. 1983; cited from earlier work
T1 construct: host or cells: human basophils
T1 sequence (P12319 26-257): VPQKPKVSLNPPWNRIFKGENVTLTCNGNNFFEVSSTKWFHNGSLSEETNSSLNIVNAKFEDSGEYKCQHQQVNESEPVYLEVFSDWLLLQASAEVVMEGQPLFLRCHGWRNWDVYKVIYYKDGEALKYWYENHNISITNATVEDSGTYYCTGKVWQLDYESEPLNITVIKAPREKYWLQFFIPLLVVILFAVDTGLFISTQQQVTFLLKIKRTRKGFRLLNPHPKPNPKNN
T1 sequence (Q01362 1-244 partner): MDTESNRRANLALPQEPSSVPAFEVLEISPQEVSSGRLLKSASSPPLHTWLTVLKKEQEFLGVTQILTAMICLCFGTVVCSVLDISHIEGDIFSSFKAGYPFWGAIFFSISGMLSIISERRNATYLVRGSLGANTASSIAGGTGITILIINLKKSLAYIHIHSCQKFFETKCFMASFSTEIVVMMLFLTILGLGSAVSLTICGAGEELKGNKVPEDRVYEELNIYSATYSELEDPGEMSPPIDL
T1 sequence (P30273 19-86 partner): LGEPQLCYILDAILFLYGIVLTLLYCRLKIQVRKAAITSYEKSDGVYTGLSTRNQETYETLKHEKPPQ

[6] = system: systemic allergic disease; conditions: humans, subcutaneous injection; cited from earlier work

Compound: Gly-Gln-Pro-Arg (GQPR; printed: Gly-Gln-Pro-Arg) [Rigin, tetrapeptide analogue of Tuftsin]
stimulation of phagocytosis [1]: phagocytosis-stimulating abilities similar to those of Tuftsin

Compound: PRKTKGSGFFVF [portion of Cε 4 of human IgE, aa 495-506]
degranulation of mast cells (human mast cells): cause degranulation
degranulation of mast cells (rodent mast cells): cause degranulation

Rosette inhibition expressed as percent inhibition by monomeric IgG, monocyte/macrophage Fc receptor IgG [2]: 19%
Rosette inhibition expressed as percent inhibition by monomeric IgG, basophil Fc receptor IgG (BASOPHIL Fc Receptor IgG): 74%
Compound: CC(=O)N[C@@H](CCC(N)=O)C(=O)N1CCC[C@H]1C(=O)N[C@@H](CCC(=O)O)C(=O)N[C@@H](CC(N)=O)C(=O)O [Ac--Gln--Pro--Glu--Asn, Ac-Gln-Pro-Glu-Asn] (Ac-QPEN-OH)
Rosette inhibition expressed as percent inhibition by monomeric IgG, neutrophil (PMN) Fc receptor IgG [3]: 95%

Compound: QYDSTYR [heptapeptide identical to IgG aa 295-301]
blocking of IgG binding to human monocyte IgG Fc receptors [4]: slightly block

Compound: Asp-Ser-Asp-Pro-Arg (DSDPR; printed: Asp-Ser-Asp-Pro-Arg) [pentapeptide derived from human IgE Cε 3 at aa 320-324]
blocking of human IgE binding to basophil IgE Fc receptors [5]: up to 70%
inhibition of systemic allergic disease [6]: inhibit systemic allergic disease

Reference: patent publication US4683292A, “Immunotherapeutic polypeptide agents which bind to lymphocyte immunoglobulin FC receptors” (Immunetech, Inc., priority 1983, dated 1987)
